Measured values from the supplement of paper PMC8149375.

Key:
Conditions in all cases: treatment: drug + dasatinib (fixed dose, not stated); 5 days
786-O [1] = experiment: minimum viability across doses, drug + dasatinib, relative to DMSO (fraction); higher = less growth inhibition
Experimental: (§1)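 Primary HTS combination arm: 8 RCC cell lines treated with 8 doses (up to 10 uM) of each library drug plus a fixed dose of dasatinib (dose not stated) for 5 days; viability read by CellTiter-Glo and normalised to DMSO. GI50 was fitted with XLfit, AUC is the area under the dose-response curve, and minimum viability is the lowest fraction of DMSO viability across doses.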

TK-10 [2] = experiment: as above
Experimental: as §1

UO-31 [3] = experiment: as above
Experimental: as §1

CAKI-1 [4] = experiment: as above
Experimental: as §1

769-P [5] = experiment: as above
Experimental: as §1

SN12C [6] = experiment: as above
Experimental: as §1

ACHN [7] = experiment: as above
Experimental: as §1

A498 [8] = experiment: as above
Experimental: as §1

786-O [9] = experiment: AUC of dose-response viability curve, drug + dasatinib, normalised to DMSO (arbitrary (AUC of normalised viability)); higher = less growth inhibition
Experimental: as §1

TK-10 [10] = experiment: as above
Experimental: as §1

UO-31 [11] = experiment: as above
Experimental: as §1

CAKI-1 [12] = experiment: as above
Experimental: as §1

769-P [13] = experiment: as above
Experimental: as §1

SN12C [14] = experiment: as above
Experimental: as §1

ACHN [15] = experiment: as above
Experimental: as §1

A498 [16] = experiment: as above
Experimental: as §1

786-O [17] = experiment: GI50 of drug in presence of dasatinib; higher = less potent
Experimental: as §1

TK-10 [18] = experiment: as above
Experimental: as §1

UO-31 [19] = experiment: as above
Experimental: as §1

CAKI-1 [20] = experiment: as above
Experimental: as §1

769-P [21] = experiment: as above
Experimental: as §1

SN12C [22] = experiment: as above
Experimental: as §1

ACHN [23] = experiment: as above
Experimental: as §1

A498 [24] = experiment: as above
Experimental: as §1

GI50 of drug (786-O [17]) | GI50 of drug (ACHN [23]) | Structure (SMILES) | minimum viability across doses (786-O [1]) | minimum viability across doses (TK-10 [2]) | minimum viability across doses (UO-31 [3]) | minimum viability across doses (CAKI-1 [4]) | minimum viability across doses (769-P [5]) | minimum viability across doses (SN12C [6]) | minimum viability across doses (ACHN [7]) | minimum viability across doses (A498 [8]) | AUC of dose-response viability curve (786-O [9]) | AUC of dose-response viability curve (TK-10 [10]) | AUC of dose-response viability curve (UO-31 [11]) | AUC of dose-response viability curve (CAKI-1 [12]) | AUC of dose-response viability curve (769-P [13]) | AUC of dose-response viability curve (SN12C [14]) | AUC of dose-response viability curve (ACHN [15]) | AUC of dose-response viability curve (A498 [16]) | GI50 of drug (TK-10 [18]) | GI50 of drug (UO-31 [19]) | GI50 of drug (CAKI-1 [20]) | GI50 of drug (769-P [21]) | GI50 of drug (SN12C [22]) | GI50 of drug (A498 [24])
> 10000 nM | 10.9 nM | CN(C[C@@H]1COCCO1)S(=O)(=O)Nc1ccc2ccc3ncc(-c4cnn(C)c4)cc3c(=O)c2c1 [MK-2461] + Cc1nc(Nc2ncc(C(=O)Nc3c(C)cccc3Cl)s2)cc(N2CCN(CCO)CC2)n1 [dasatinib] | 0.638 | 0.287 | 0.227 | 0.0412 | 0.362 | 0.179 | 0.121 | 0.919 | 4.08 | 2.19 | 5.47 | 1.71 | 2.49 | 2.14 | 1.23 | 4.48 | 2910 nM | 5330 nM | 450 nM | 6280 nM | > 10000 nM | > 10000 nM
105 nM | 40.1 nM | O=C(O)[C@]1(Cc2cccc(Nc3nccs3)n2)CC[C@@H](Oc2cccc(Cl)c2F)CC1 [MK-5108 (VX-689)] + Cc1nc(Nc2ncc(C(=O)Nc3c(C)cccc3Cl)s2)cc(N2CCN(CCO)CC2)n1 [dasatinib] | 0.00534 | 0.372 | 0.37 | 0.216 | 0.202 | 0.174 | 0.227 | 0.339 | 1.07 | 2.14 | 3.91 | 1.86 | 2.18 | 1.96 | 1.51 | 2.89 | 1480 nM | 4080 nM | 355 nM | 1360 nM | 944 nM | 1990 nM
641 nM | 398 nM | O=C(O)c1ccc(Nc2ncc3c(n2)-c2ccc(Cl)cc2C(c2c(F)cccc2F)=NC3)cc1 [MLN8054] + Cc1nc(Nc2ncc(C(=O)Nc3c(C)cccc3Cl)s2)cc(N2CCN(CCO)CC2)n1 [dasatinib] | 0.157 | 0.585 | 0.645 | 0.277 | 0.306 | 0.425 | 0.219 | 0.354 | 2.01 | 2.58 | 2.92 | 1.93 | 2.14 | 2.22 | 1.77 | 2.68 | > 10000 nM | > 10000 nM | 641 nM | 1190 nM | 3920 nM | 4230 nM
4050 nM | 460 nM | Cc1ccc(NC(=O)c2ccc(CN3CCN(C)CC3)cc2)cc1Nc1nc(-c2cccnc2)cs1 [Masitinib (AB1010)] + Cc1nc(Nc2ncc(C(=O)Nc3c(C)cccc3Cl)s2)cc(N2CCN(CCO)CC2)n1 [dasatinib] | 0.204 | 0.57 | 0.271 | 0.438 | 0.377 | 0.484 | 0.263 | 0.622 | 2.55 | 2.71 | 3.05 | 2.28 | 2.3 | 2.51 | 1.96 | 3.05 | > 10000 nM | 6090 nM | 6750 nM | 4700 nM | > 10000 nM | > 10000 nM
> 10000 nM | > 10000 nM | CC1(C)CNc2cc(NC(=O)c3cccnc3NCc3ccncc3)ccc21.O=P(O)(O)O.O=P(O)(O)O [Motesanib Diphosphate] + Cc1nc(Nc2ncc(C(=O)Nc3c(C)cccc3Cl)s2)cc(N2CCN(CCO)CC2)n1 [dasatinib] | 0.714 | 0.724 | 0.944 | 0.542 | 0.599 | 0.711 | 0.512 | 0.877 | 2.74 | 2.87 | 3.93 | 2.39 | 2.34 | 2.56 | 2.3 | 3.26 | > 10000 nM | > 10000 nM | > 10000 nM | > 10000 nM | > 10000 nM | > 10000 nM
23.8 nM | 31.4 nM | FC(F)(F)c1ccc(/C=C/c2nc(COc3ccc(CCCCn4ccnn4)cc3)co2)cc1 [Mubritinib (TAK 165)] + Cc1nc(Nc2ncc(C(=O)Nc3c(C)cccc3Cl)s2)cc(N2CCN(CCO)CC2)n1 [dasatinib] | 0.0257 | 0.168 | 0.124 | 0.543 | 0.539 | 0.0505 | 0.183 | 0.231 | 0.96 | 1.56 | 1.66 | 2.17 | 2.32 | 1.09 | 1.26 | 1.99 | 146 nM | 74.7 nM | > 10000 nM | > 10000 nM | 41.6 nM | 243 nM
3280 nM | 129 nM | Nc1ncnc2c1c(-c1cccc(OCc3ccccc3)c1)cn2[C@H]1C[C@H](CN2CCCC2)C1 [NVP-ADW742] + Cc1nc(Nc2ncc(C(=O)Nc3c(C)cccc3Cl)s2)cc(N2CCN(CCO)CC2)n1 [dasatinib] | 0.172 | 0.124 | 0.0171 | 0.0883 | 0.278 | 0.48 | 0.147 | 0.296 | 2.33 | 2.44 | 2.57 | 2 | 2.45 | 2.44 | 1.77 | 3.18 | 3390 nM | 2490 nM | 1290 nM | 5140 nM | > 10000 nM | 8960 nM
5.3 nM | 4.38 nM | COc1ccc(-c2ccc3ncc4c(c3c2)n(-c2ccc(N3CCNCC3)c(C(F)(F)F)c2)c(=O)n4C)cn1.O=C(O)/C=C\C(=O)O [NVP-BGT226] + Cc1nc(Nc2ncc(C(=O)Nc3c(C)cccc3Cl)s2)cc(N2CCN(CCO)CC2)n1 [dasatinib] | 0.00462 | 0.00345 | 0.0107 | 0.00249 | 0.00834 | 0.00253 | 0.00153 | 0.0127 | 0.402 | 0.725 | 0.779 | 0.631 | 0.87 | 0.601 | 0.453 | 0.972 | 12.2 nM | 14.2 nM | 10.1 nM | 15.9 nM | 6.06 nM | 20 nM
491 nM | 511 nM | Cc1ccc(C(=O)Nc2cccc(C(F)(F)F)c2)cc1Nc1nc(-c2cccnc2)nc2c1cnn2C [NVP-BHG712] + Cc1nc(Nc2ncc(C(=O)Nc3c(C)cccc3Cl)s2)cc(N2CCN(CCO)CC2)n1 [dasatinib] | 0.00229 | 0.0343 | 0.00794 | 0.026 | 0.0398 | 0.0536 | 0.126 | 0.0233 | 1.66 | 2.1 | 3.61 | 1.87 | 2.16 | 2.37 | 1.8 | 3.17 | 1070 nM | 3110 nM | 506 nM | 1640 nM | 6860 nM | 4420 nM
44.1 nM | 380 nM | Cl.Cl.Fc1cc(-c2cccc3ncc(-c4cnn(C5CCNCC5)c4)nc23)cc(F)c1CN1CCOCC1 [NVP-BSK805] + Cc1nc(Nc2ncc(C(=O)Nc3c(C)cccc3Cl)s2)cc(N2CCN(CCO)CC2)n1 [dasatinib] | 0.00448 | 0.108 | 0.0214 | 0.0163 | 0.37 | 0.127 | 0.0139 | 0.0371 | 1.85 | 2.08 | 3.35 | 1.9 | 2.29 | 2.15 | 1.64 | 3.09 | 1420 nM | 2940 nM | 962 nM | 3940 nM | 2430 nM | 5130 nM
361 nM | 15.4 nM | Cn1cc(-c2ccc3ncc(Cc4ccc5ncccc5c4)n3n2)cn1 [NVP-BVU972] + Cc1nc(Nc2ncc(C(=O)Nc3c(C)cccc3Cl)s2)cc(N2CCN(CCO)CC2)n1 [dasatinib] | 0.00818 | 0.119 | 0.0147 | 0.0417 | 0.0263 | 0.0116 | 0.0103 | 0.0158 | 1.79 | 2.03 | 3.81 | 1.71 | 2.06 | 2.12 | 1.28 | 3.44 | 836 nM | 2040 nM | 303 nM | 1150 nM | 1900 nM | 1440 nM
26.7 nM | 27.4 nM | CNC(=O)c1ccccc1Nc1nc(Nc2ccc(N3CCOCC3)cc2OC)ncc1Cl [NVP-TAE226] + Cc1nc(Nc2ncc(C(=O)Nc3c(C)cccc3Cl)s2)cc(N2CCN(CCO)CC2)n1 [dasatinib] | 0.00641 | 0.0355 | 0.00626 | 0.0135 | 0.085 | 0.132 | 0.0673 | 0.201 | 1.1 | 1.64 | 2.35 | 1.34 | 1.98 | 1.91 | 1.19 | 3.26 | 202 nM | 334 nM | 107 nM | 750 nM | 335 nM | 5880 nM
> 10000 nM | 2000 nM | COc1ccc(C2=NC(c3ccc(Cl)cc3)C(c3ccc(Cl)cc3)N2C(=O)N2CCNC(=O)C2)c(OC(C)C)c1 (configuration not stated) [Nutlin-3] + Cc1nc(Nc2ncc(C(=O)Nc3c(C)cccc3Cl)s2)cc(N2CCN(CCO)CC2)n1 [dasatinib] | 0.707 | 0.665 | 0.583 | 0.168 | 0.519 | 0.712 | 0.2 | 0.905 | 2.83 | 2.5 | 4.46 | 2.15 | 2.54 | 2.62 | 1.89 | 3.61 | > 10000 nM | > 10000 nM | 2420 nM | > 10000 nM | > 10000 nM | > 10000 nM
